Assay [1] addresses S1P1-GFP (U2OS) (Homo sapiens, UniProt P21453). Description: receptor internalization, imaging. The class given is cell-based. As to conditions: agonist; […] min, […]°C.
Assay [2] addresses ApoM-Fc (Homo sapiens, UniProt O95445). Description: intrinsic Trp fluorescence quenching. The class given is binding.

ApoM-Fc, sequence (O95445 20-188 limits assumed): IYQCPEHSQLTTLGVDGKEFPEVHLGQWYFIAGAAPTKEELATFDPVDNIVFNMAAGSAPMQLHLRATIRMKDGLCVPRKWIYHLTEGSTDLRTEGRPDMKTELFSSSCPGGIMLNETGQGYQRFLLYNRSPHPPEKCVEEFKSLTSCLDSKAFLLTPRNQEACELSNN
S1P1-GFP (U2OS), sequence (P21453 whole entry): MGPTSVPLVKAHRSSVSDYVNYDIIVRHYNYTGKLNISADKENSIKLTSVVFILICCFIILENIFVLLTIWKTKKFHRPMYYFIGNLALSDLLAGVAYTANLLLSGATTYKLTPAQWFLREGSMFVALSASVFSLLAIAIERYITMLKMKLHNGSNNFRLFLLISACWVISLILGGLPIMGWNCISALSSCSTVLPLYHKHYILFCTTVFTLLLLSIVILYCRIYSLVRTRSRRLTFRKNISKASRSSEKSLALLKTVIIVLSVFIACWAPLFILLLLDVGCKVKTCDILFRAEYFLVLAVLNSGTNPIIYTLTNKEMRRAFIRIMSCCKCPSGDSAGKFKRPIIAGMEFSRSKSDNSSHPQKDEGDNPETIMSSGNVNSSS

Regarding `CCCCCCCCc1ccc(CCC(N)(CO)COP(=O)(O)O)cc1` (centres unmarked) [FTY720-P], in assay [1], the “receptor internalization, imaging” value is “lower than that induced by FTY720-P, a potent and irreversible inducer of S1P1 endocytosis”.

By EC50 is commonly meant the concentration that produces a half-maximal response. As to `CCCCCCCCCCCCC/C=C/[C@@H](O)[C@@H](N)COP(=O)(O)O` [S1P], the concentration for a half-maximal effect (EC50) in assay [2] is about 220 nM.
